The record followed here is patent US9133200B2, “Imidazo[1,2-b]pyridazine and imidazo[4,5-b]pyridine derivatives as JAK inhibitors” (Almirall, S.A., priority 2010, dated 2015).

SMILES strings stand for the structures.

Common to all, as to type: biochemical
Assay [1] deals with T1, human JAK1 (aa 850-1154) (Homo sapiens, UniProt P23458).
T1 construct: human JAK1 (aa 850-1154); GST (N); purchased Carna Biosciences; host or cells: baculovirus expression system
The experiment in a line: In vitro JAK kinase assay (TR-FRET), JAK1. The note with it: catalytic domain GST-fusion; ATP 3 μM; poly (GT)-Biotin 60 nM; 30 minutes at room temperature. As to the method:
(§1) Compounds were screened for their ability to inhibit JAK1, JAK2 and JAK3 using the assays as indicated below.
(§2) The catalytic domains of human JAK1 (aa 850-1154), JAK2 (aa 826-1132), JAK3 (aa 795-1124) and Tyk2 (aa 871-1187) were expressed as N-terminal GST-fusion proteins using a baculovirus expression system and were purchased from Carna Biosciences. The enzymatic activity was assayed using as substrate a biotinylated peptide, poly (GT)-Biotin (CisBio). The peptide concentration in the reactions was 60 nM for JAK1, […], 140 nM for JAK3 and 50 nM for Tyk2. The degree of phosphorylation was detected by TR-FRET (time-resolved fluorescence energy transfer).
(§3) IC50s of compounds were measured for each kinase in a reaction mixture containing the enzyme, ATP and the peptide in 8 mM MOPS (pH 7.0), 10 mM MgCl2, 0.05% […], 0.45 mg/ml BSA. The ATP concentration in the reactions was 3 μM for JAK1, 0.2 μM for JAK2, 0.6 μM for JAK3 and 1.8 μM for Tyk2. The enzymatic reactions took place for 30 minutes at room temperature. Then, the reactions were stopped with 20 μL of quench detection buffer (50 mM HEPES, 0.5 M KF, EDTA 0.25 M, 0.1% (w/v) BSA, pH 7.5) containing 0.115 μg/mL of anti-phosphoTyr (PT66)-Cryptate (CisBio) and a variable concentration of SA-XL665 (CisBio) to keep the SA-B ratio constant. Incubate for 3 h and read on Victor 2V spectrofluorometer (PerkinElmer) set to read fluorescence resonance energy transfer.
For orientation: TR-FRET usually uses a lanthanide donor and a delayed reading to cut background.

Assay [2] deals with T2, human JAK2 (aa 826-1132) (Homo sapiens, UniProt O60674).
T2 construct: JAK2 (aa 826-1132); GST (N); purchased Carna Biosciences; host or cells: baculovirus expression system
The experiment in a line: In vitro JAK kinase assay (TR-FRET), JAK2. The note with it: catalytic domain GST-fusion; ATP 0.2 μM; poly (GT)-Biotin; 30 minutes at room temperature. The method, then:
as §1, §2, §3

Assay [3] concerns the target T3, human JAK3 (aa 795-1124) (Homo sapiens, UniProt P52333).
T3 construct: JAK3 (aa 795-1124); GST (N); purchased Carna Biosciences; host or cells: baculovirus expression system
Kind of assay: In vitro JAK kinase assay (TR-FRET), JAK3. The note with it: catalytic domain GST-fusion; ATP 0.6 μM; poly (GT)-Biotin 140 nM; 30 minutes at room temperature. As to the method: as §1, §2, §3

T3 sequence (P52333 795-1124): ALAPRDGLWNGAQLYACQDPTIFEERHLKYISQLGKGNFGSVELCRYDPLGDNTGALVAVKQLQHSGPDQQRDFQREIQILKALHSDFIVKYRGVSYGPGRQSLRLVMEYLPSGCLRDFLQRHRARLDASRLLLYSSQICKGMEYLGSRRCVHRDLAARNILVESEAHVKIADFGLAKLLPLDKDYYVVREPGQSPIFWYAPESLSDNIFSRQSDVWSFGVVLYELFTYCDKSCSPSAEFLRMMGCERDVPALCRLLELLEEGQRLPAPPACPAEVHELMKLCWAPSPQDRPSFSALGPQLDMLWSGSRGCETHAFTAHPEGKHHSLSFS
T2 sequence (O60674 826-1132): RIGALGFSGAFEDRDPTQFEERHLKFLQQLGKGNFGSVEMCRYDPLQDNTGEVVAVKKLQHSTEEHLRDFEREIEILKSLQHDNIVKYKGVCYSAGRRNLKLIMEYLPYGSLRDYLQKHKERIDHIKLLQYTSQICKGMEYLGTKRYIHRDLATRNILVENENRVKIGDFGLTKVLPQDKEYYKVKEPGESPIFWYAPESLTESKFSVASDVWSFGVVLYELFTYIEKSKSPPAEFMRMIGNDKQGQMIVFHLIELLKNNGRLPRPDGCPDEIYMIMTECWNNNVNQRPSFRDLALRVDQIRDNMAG
T1 sequence (P23458 850-1154): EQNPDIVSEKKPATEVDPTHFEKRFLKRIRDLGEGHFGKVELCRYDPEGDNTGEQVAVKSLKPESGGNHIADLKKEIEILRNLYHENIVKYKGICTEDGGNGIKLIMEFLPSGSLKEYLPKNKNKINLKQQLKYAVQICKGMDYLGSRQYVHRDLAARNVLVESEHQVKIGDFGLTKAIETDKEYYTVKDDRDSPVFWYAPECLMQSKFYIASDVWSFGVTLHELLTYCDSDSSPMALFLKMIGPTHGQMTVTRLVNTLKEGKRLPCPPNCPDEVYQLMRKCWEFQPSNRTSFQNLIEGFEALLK

What is called IC50 is the concentration that gives 50% inhibition. Regarding `N#CCC(=O)N1CCC[C@@H](Nc2ccc3ncc(-c4ccc[nH]c4=O)n3n2)C1` [Example 1, 3-Oxo-3-((3R)-3-{[3-(2-oxo-1,2-dihydropyridin-3-yl)imidazo[1,2-b]pyridazin-6-yl]amino}piperidin-1-yl)propanenitrile], the IC50 in assay [1], in assay [2] and in assay [3] was under 0.1 µM each time.
With `C[C@@H](Nc1ccc2ncc(-c3ccc[nH]c3=O)n2n1)c1ccc(F)cn1` [Example 4, 3-(6-{[(1R)-1-(5-Fluoropyridin-2-yl)ethyl]amino}imidazo[1,2-b]pyridazin-3-yl) pyridin-2(1H)-one], the IC50 in assay [1] is 0.1 to 1 µM; in assay [2] it was under 0.1 µM; in assay [3], under 0.1 µM.
For the compound `C[C@H](Nc1ccc2ncc(-c3ccc[nH]c3=O)n2n1)c1ncc(F)cn1` [Example 5, 3-(6-{[(1S)-1-(5-Fluoropyrimidin-2-yl)ethyl]amino}imidazo[1,2-b]pyridazin-3-yl)pyridin-2(1H)-one], the IC50 in assay [1], in assay [2] and in assay [3] was under 0.1 µM throughout.
In the case of `C[C@H](Nc1ccc2ncc(-c3ccn[nH]c3=O)n2n1)c1ccccc1` [Example 6, 4-(6-{[(1S)-1-Phenylethyl]amino}imidazo[1,2-b]pyridazin-3-yl)pyridazin-3(2H)-one], the IC50 is 0.1 to 1 µM in assay [1], under 0.1 µM in assay [2] and under 0.1 µM in assay [3].
`C[C@H](Nc1ccc2ncc(-c3cc(Cl)c[nH]c3=O)n2n1)c1ccc(F)cn1` [Example 8, 5-Chloro-3-(6-{[(1S)-1-(5-fluoropyridin-2-yl)ethyl]amino}imidazo[1,2-b]pyridazin-3-yl)pyridin-2(1H)-one]: the IC50 in assay [1], in assay [2] and in assay [3] was under 0.1 µM throughout.
Regarding `Cc1cc2ncc(-c3ccc[nH]c3=O)n2nc1N[C@@H](C)c1ccc(F)cn1` [Example 9, 3-(6-{[(1S)-1-(5-Fluoropyridin-2-yl)ethyl]amino}-7-methylimidazo[1,2-b]pyridazin-3-yl)pyridin-2(1H)-one], the IC50 in assay [1], in assay [2] and in assay [3] was under 0.1 µM throughout.
Take `C[C@H](Nc1ccc2ncn(-c3cc(Cl)c[nH]c3=O)c2n1)c1ccc(F)cn1` [Example 13, 5-Chloro-3-(5-{[(1S)-1-(5-fluoropyridin-2-yl)ethyl]amino}-3H-imidazo[4,5-b]pyridin-3-yl)pyridin-2(1H)-one]: the IC50 in assay [1], in assay [2] and in assay [3] was under 0.1 µM throughout.
